Entries after “also recorded” stand apart in the source; their conditions may differ.
Molecular target: I-A^b (Mus musculus, UniProt P14434+P14483)
Experiment: MHC2-SCALE peptide exchange with 2D-LCMS detection on I-A^b
Type: binding
Conditions: single peptide, lowmCLIP-I-A^b, standard exchange pH 5, 2D-LCMS

Chain of I-A^b (P14434 whole entry, looked up): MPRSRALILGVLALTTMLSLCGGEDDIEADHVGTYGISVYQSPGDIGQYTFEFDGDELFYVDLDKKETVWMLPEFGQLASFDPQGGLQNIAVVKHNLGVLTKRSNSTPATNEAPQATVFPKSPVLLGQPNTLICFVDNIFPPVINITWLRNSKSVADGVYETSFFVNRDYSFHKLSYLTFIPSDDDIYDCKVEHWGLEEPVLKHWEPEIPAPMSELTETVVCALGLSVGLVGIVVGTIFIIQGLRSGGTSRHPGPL
Chain of I-A^b (P14483 whole entry, looked up): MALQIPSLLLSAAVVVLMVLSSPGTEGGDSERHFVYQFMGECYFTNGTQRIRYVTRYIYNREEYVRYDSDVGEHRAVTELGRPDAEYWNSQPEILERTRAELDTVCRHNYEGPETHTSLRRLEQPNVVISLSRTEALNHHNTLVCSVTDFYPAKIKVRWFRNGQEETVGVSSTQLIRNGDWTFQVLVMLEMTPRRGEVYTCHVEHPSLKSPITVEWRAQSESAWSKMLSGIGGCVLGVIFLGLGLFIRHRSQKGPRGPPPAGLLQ

DRGVIMSAHSLTNSS [M57-A]
peptide exchange / binding to I-A^b by MHC2-SCALE, in words: binders

HYKYMCNSSCMGVMN [M112-A]
peptide exchange / binding to I-A^b by MHC2-SCALE, in words: bound; also recorded: strong binder

LPLQPFQLAFGHLVN [M46-A]
peptide exchange / binding to I-A^b by MHC2-SCALE, in words: complete peptide exchange

LQPFQLAFGHLVNRQV [M46-B]
peptide exchange / binding to I-A^b by MHC2-SCALE, in words: complete peptide exchange

VIMSAHSLTNSSSDF [M57-B]
peptide exchange / binding to I-A^b by MHC2-SCALE, in words: binders
